Assay results from US10889551B2, “Biemamides and related scaffolds as inhibitors of transforming growth factor-beta signaling” (Wisconsin Alumni Research Foundation, priority 2018, dated 2021).

Legend:
C. elegans = C. elegans assay (development and body length); assay type: in vivo; details: three concentrations spanning 1 μM→100 μM
Experimental: Synchronized cultures of C. elegans were obtained using the following procedure: a mixed population of worms containing many gravid adults was washed off of two 10 cm NGM plates using distilled water. C. elegans were pelleted at 1000 g in a 15 mL conical tube and the supernatant was discarded. A mix of 3 mL distilled water, 1 mL bleach, and 1 mL 1 M NaOH was added. The tube was inverted for several minutes until it could be observed that the gravid adults had released their eggs. The eggs were pelleted at 1000 g, washed three times with distilled water and suspended in 10 mL of M9 (3.0 g KH2PO4, 6.0 g Na2HPO4, 0.5 g NaCl, 1.0 g NH4Cl into 1 L distilled water). The egg suspension was rotated overnight in a 50 mL conical tube during which the embryos hatched and arrested at the L1 stage. The C. elegans were washed twice and diluted with M9 to reach an approximate concentration of 20 worms/10 μL. Each well in a 96-well plate was prepared by adding 10 μL worm suspension, 0.5 μg OP50 E. coli, 1 μL DMSO (control) or 1 μL DMSO with compounds, and brought to a final volume of 100 μL with M9 plus cholesterol (5 μg/mL). The plates were incubated in a humidified box at 23° C. for 72 hours. To immobilize worms to measure body length the worms were killed by immersing the 96-well plate in a 70° C. water bath for several minutes. Each experiment was performed in triplicate within each plate. […]

NMuMG epithelial cells = assay: TGF-β induced EMT in NMuMG cell line (imaging assay); assay type: cell-based, mouse; details: 50 pM TGF-β, 72 h
Experimental: Mouse mammary epithelial cell line NMuMG was purchased from American Tissue Culture Collection (ATCC, Manassas, Va.), and NMuMG were cultured as per ATCC recommendations. Imaging assay: Cells were plated in glass bottomed 96 well imaging plates, at a density of 1,000 cells per well, and were allowed to attach overnight. Cells (with exception of 3 control wells) were treated with 50 pm TGF-β. Along with the TGF-β test compounds 1-5 were added in at various doses, and a set of wells was treated with a known TGF-β inhibitor SB431542 at 1 μM.
In the absence of TGF-β, NMuMG cells form an epithelial shape; incubation with 50 pM TGF-β for 72 h induces a more fibroblast-like, spindle shaped morphology indicative of mesenchymal cells (FIGS. 3A-3D). […] Nine concentrations (160-0.625 nM) of compounds 1-5 were tested for their ability to impact TGF-β signaling in NMuMG cells.

TGF-β signaling = assay: MLEC luciferase assay (TGF-β activated luciferase, Bright-Glo); assay type: cell-based, mink; details: purified compounds, 24 hours with TGF-β, read-out: IC50, inhibition of TGF-β (MLEC-based TGF-β inhibition assay)
Experimental: A total of 3840 fractions, plated on 12 384-well plates, were assayed in a high throughput screen at 10 μM final concentration. For purposes of concentration calculations we set the average molecular weight of each compound in the library at 500 Da. Each fraction had its different mass, therefore different volumes were used for each well in the screening. Z′ for the plates were between 0.53 and 0.45. Initial hits were identified as compounds that inhibited the Bright-Glo signal (see below MLEC assay) by more than 84%. Using this criteria, we identified 48 compounds of interest. The 48 initial hits were then re-screened in a 10 point dose response curve in duplicate. The compounds were assayed for both luciferase inhibition and toxicity using CellTiter-Glo (Promega). Of the 48 compounds identified in the HTS assay, 19 inhibited TGF-β activated luciferase activity without inducing mink lung cell toxicity. MLEC were plated into 384-well plates at a density of 5000 cells/well using Micro-flow (Biotek) multi well reagent dispenser and incubated overnight at 37° C. in the CO2 incubator. 1 μM control SB431542 or 10 μM of compounds 1-5 were added to the wells using the ECHO 550 (Labcyte), then added 10 μL media with […] TGF-β using Micro-flow and incubated for 24 hours at 37° C. 25 μL Bright-Glo (Promega) was added using Micro-flow, and agitated for 4 minutes. The Enspire (Perkin Elmer) plate reader was used to measure the TGF-β response in each well. The luciferase activity was reported as relative light units (RLU), and the readout of each tested fraction was then normalized against negative controls. Dose-response TGF-β data and cytotoxicity assays using fibroblasts were employed to more rigorously evaluate the 48 initial hits. […] Chemical analysis of the secondary metabolites in the active wells/extract fractions of WMMA2266 led to the discovery of five pyrimidinedione derivatives, biemamides A-E (1-5).

| Molecule | C. elegans size (C. elegans) | inhibition of TGF-β-induced EMT (cell morphology), positive control (NMuMG epithelial cells; 1 μM) | IC50 (TGF-β signaling) | inhibition of TGF-β-induced EMT (cell morphology) (NMuMG epithelial cells; nine concentrations 160-0.625 nM (FIG. 3C: 160 nM compound 1)) |
| --- | --- | --- | --- | --- |
| NC(=O)c1ccc(-c2nc(-c3ccc4c(c3)OCO4)c(-c3ccccn3)[nH]2)cc1 [SB431542, reference compound] | did not alter C. elegans size | blocked TGF-β-induced transition of the NMuMG epithelial cells into mesenchymal cells | 411 nM |  |
| Biemamide A [Compound 1] |  |  | 51.5 nM | cells maintained their epithelial phenotype |
| Biemamide B [Compound 2] |  |  | 18.7 nM |  |
| Biemamide C [Compound 3] |  |  | 51.5 nM |  |
| Biemamide D [Compound 4] |  |  | 102 nM |  |
| Biemamide E [Compound 5] |  |  | 83.2 nM |  |
